Results from US10294202B2, “Pyrrolidinones as herbicides” (FMC Corporation, priority 2013, dated 2019).

Tests used:
pigweed = assay: Test A pre-/postemergence herbicide test; type: in vivo, Amaranthus retroflexus
How it was run: (§1)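 Both application timings used compounds in a non-phytotoxic solvent plus surfactant. Pre-emergence: soil sprayed directly after seeding into loam/sand. Post-emergence: foliage of 2–10 cm seedlings (1–2 leaves) sprayed. Injury rated ~10 days later, 0–100.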

barnyardgrass [1] = assay: Test A pre-/postemergence herbicide test; type: in vivo, Echinochloa crus-galli
How it was run: as §1

ducksalad = assay: Test B flooded paddy test; type: in vivo, Heteranthera limosa; settings: Flood, scale of 0 to 100 where 0 is no effect and 100 is complete control
Procedure: (§2) Plant species in the flooded paddy test selected from rice (Oryza sativa), sedge, umbrella (small-flower umbrella sedge, Cyperus difformis), ducksalad (Heteranthera limosa), and barnyardgrass (Echinochloa crus-galli) were grown to the 2-leaf stage for testing. At time of treatment, test pots were flooded to 3 cm above the soil surface, treated by application of test compounds directly to the paddy water, and then maintained at that water depth for the duration of the test. Treated plants and controls were maintained in a greenhouse for 13 to 15 days, after which time all species were compared to controls and visually evaluated. Plant response ratings, summarized in Table B, are based on a scale of 0 to 100 where 0 is no effect and 100 is complete control. A dash (-) response means no test result.

corn = assay: Test A pre-/postemergence herbicide test; type: in vivo, Zea mays
How it was run: as §1

sedge, umbrella = assay: Test B flooded paddy test; type: in vivo, Cyperus difformis; settings: Flood, scale of 0 to 100 where 0 is no effect and 100 is complete control
How it was run: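 2-leaf plants; flood 3 cm over soil; compound into paddy water; depth held. Greenhouse 13–15 d. Visual rating vs controls, 0 (no effect) to 100 (complete control); dash = not tested.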

wheat = assay: Test A pre-/postemergence herbicide test; type: in vivo, Triticum aestivum
How it was run: as §1

giant foxtail = assay: Test A pre-/postemergence herbicide test; type: in vivo, Setaria faberii
How it was run: as §1

morningglory = assay: Test A pre-/postemergence herbicide test; type: in vivo, Ipomoea spp.
How it was run: as §1

barnyardgrass [2] = assay: Test B flooded paddy test; type: in vivo, Echinochloa crus-galli; settings: Flood, scale of 0 to 100 where 0 is no effect and 100 is complete control
Procedure: as §2

rice = assay: Test B flooded paddy test; type: in vivo, Oryza sativa; settings: Flood, scale of 0 to 100 where 0 is no effect and 100 is complete control
Procedure: as §2

crabgrass, large = assay: Test A pre-/postemergence herbicide test; type: in vivo, Digitaria sanguinalis
How it was run: as §1

velvetleaf = assay: Test A pre-/postemergence herbicide test; type: in vivo, Abutilon theophrasti
How it was run: as §1

[3] = Postemergence, 500 g ai/ha, 0 to 100 scale (0 no effect, 100 complete control)
[4] = Preemergence, 125 g ai/ha, visual rating on 0 to 100 scale (0 no effect, 100 complete control)
[5] = preemergence, 500 g ai/ha, 0 to 100 scale
[6] = Postemergence, 125 g ai/ha, 0 to 100 scale, 0 no effect, 100 complete control
[7] = Postemergence, 1000 g ai/ha, 0 to 100 scale (0 no effect, 100 complete control)
[8] = preemergence, 1000 g ai/ha, 0 to 100 scale

For `N#Cc1cccc(C2CNC(=O)C2C(=O)Nc2cccc(F)c2F)c1` (racemic) [Compound 73], the “Plant response rating, Pigweed” value (pigweed; [3]) was 0, the “Pigweed plant response rating” value (pigweed; [4]) was 0 and the “Plant response rating, Pigweed” value (pigweed; [5]) was 0. The “Plant response rating, Barnyardgrass” value (barnyardgrass [1]; [6]) was 70, the “Plant response rating, Barnyardgrass” value (barnyardgrass [1]; [3]) was 80 and the “Barnyardgrass plant response rating” value (barnyardgrass [1]; [4]) was 50. For the same compound, the “Plant response rating, Barnyardgrass” value (barnyardgrass [1]; preemergence, 500 g ai/ha, 0 to 100 scale (0 no effect, 100 complete control)) was 80, the “Plant response rating, Ducksalad” value (ducksalad; 250 g ai/ha) was 60 and the “Plant response rating, Corn” value (corn; [6]) was 0. For the same compound, the “Plant response rating, Corn” value (corn; [3]) was 0, the “Corn plant response rating” value (corn; [4]) was 0 and the “Plant response rating, Corn” value (corn; [5]) was 0. For the same compound, the “Plant response rating, Sedge, Umbrella” value (sedge, umbrella; 250 g ai/ha) was 0, the “Plant response rating, Wheat” value (wheat; [6]) was 0 and the “Plant response rating, Wheat” value (wheat; [3]) was 0. For the same compound, the “Wheat plant response rating” value (wheat; [4]) was 0, the “Plant response rating, Wheat” value (wheat; [5]) was 0 and the “Plant response rating, Foxtail, Giant” value (giant foxtail; [6]) was 30. For the same compound, the “Plant response rating, Foxtail, Giant” value (giant foxtail; [3]) was 80, the “Foxtail, Giant plant response rating” value (giant foxtail; [4]) was 80 and the “Plant response rating, Foxtail, Giant” value (giant foxtail; [5]) was 90. For the same compound, the “Plant response rating, Morningglory” value (morningglory; [6]) was 0, the “Plant response rating, Morningglory” value (morningglory; [3]) was 20 and the “Morningglory plant response rating” value (morningglory; [4]) was 0. For the same compound, the “Plant response rating, Morningglory” value (morningglory; [5]) was 0, the “Plant response rating, Barnyardgrass” value (barnyardgrass [2]; 250 g ai/ha) was 0 and the “Plant response rating, Rice” value (rice; 250 g ai/ha) was 0. The “Plant response rating, Crabgrass, Large” value (crabgrass, large; [6]) was 50, the “Plant response rating, Crabgrass, Large” value (crabgrass, large; [3]) was 80 and the “Crabgrass, Large plant response rating” value (crabgrass, large; [4]) was 80. The “Plant response rating, Crabgrass, Large” value (crabgrass, large; [5]) was 90, the “Plant response rating, Velvetleaf” value (velvetleaf; [6]) was 0 and the “Plant response rating, Velvetleaf” value (velvetleaf; [3]) was 30. For the same compound, the “Velvetleaf plant response rating” value (velvetleaf; [4]) was 0 and the “Plant response rating, Velvetleaf” value (velvetleaf; [5]) was 0.

For `O=C1NCC(c2ccc(F)c(F)c2)C1C(=O)Nc1cccnc1F` (racemic) [Compound 105], the “Plant response rating, Pigweed” value (pigweed; [7]) was 0, the “Plant response rating, Pigweed” value (pigweed; [8]) was 0 and the “Plant response rating, Barnyardgrass” value (barnyardgrass [1]; [7]) was 90. For the same compound, the “Plant response rating, Barnyardgrass” value (barnyardgrass [1]; preemergence, 1000 g ai/ha, 0 to 100 scale (0 no effect, 100 complete control)) was 90, the “Plant response rating, Ducksalad” value (ducksalad; 1000 g ai/ha) was 90 and the “Plant response rating, Corn” value (corn; [7]) was 0. The “Plant response rating, Corn” value (corn; [8]) was 0, the “Plant response rating, Sedge, Umbrella” value (sedge, umbrella; 1000 g ai/ha) was 0 and the “Plant response rating, Wheat” value (wheat; [7]) was 0. For the same compound, the “Plant response rating, Wheat” value (wheat; [8]) was 0, the “Plant response rating, Foxtail, Giant” value (giant foxtail; [7]) was 80 and the “Plant response rating, Foxtail, Giant” value (giant foxtail; [8]) was 90. For the same compound, the “Plant response rating, Morningglory” value (morningglory; [7]) was 10, the “Plant response rating, Morningglory” value (morningglory; [8]) was 0 and the “Plant response rating, Barnyardgrass” value (barnyardgrass [2]; 1000 g ai/ha) was 25. For the same compound, the “Plant response rating, Rice” value (rice; 1000 g ai/ha) was 10, the “Plant response rating, Crabgrass, Large” value (crabgrass, large; [7]) was 90 and the “Plant response rating, Crabgrass, Large” value (crabgrass, large; [8]) was 90. For the same compound, the “Plant response rating, Velvetleaf” value (velvetleaf; [7]) was 10 and the “Plant response rating, Velvetleaf” value (velvetleaf; [8]) was 0.
